Laboratory results as given in patent EP4321162A1 (priority 2022, dated 2024).

Legend:
SARS-CoV-2 = system: SARS-CoV-2; design: species or system K18-hACE2 mice; details: mouse, in vivo
Calu-3 2B4 cells = details: uninfected Calu-3 2B4 cells, 1-50 µM tested, 48 h

SMILES	protection levels (survival) (SARS-CoV-2) [%]	cytotoxicity of the administered concentrations (cell viability, MTT) (Calu-3 2B4 cells)
CC(C)(C)c1cc(C(C)(C)C)c(NC(=O)c2c[nH]c3ccccc3c2=O)cc1O [VX770, N-(2,4-ditert-butyl-5-hydroxyphenyl)-4-oxo-1H-quinoline-3-carboxamide]	40	non-toxic
Cc1ccc(NC(=O)C2(c3ccc4c(c3)OC(F)(F)O4)CC2)nc1-c1cccc(C(=O)O)c1 [VX809, 3-[6-[[1-(2,2-difluoro-1,3-benzodioxol-5-yl)cyclopropanecarbonyl]amino]-3-methylpyridin-2-yl]benzoic acid]	20	non-toxic
